This test has as its target T1, HEK 293 GPR73 (prokineticin 1 receptor) expressing cells (Homo sapiens, UniProt Q8TCW9).
T1 construct: expressed in transfected cells; host or cells: HEK 293
Nature of the test: PK1 functional assay: screening for PK1 antagonists on the FLIPR (calcium fluorescence). The test is classed as cell-based. The following applies: HEK 293 GPR73 cells; for IC50: PK1 ligand at EC50, multiple values = repeat tests, read-out: Ca^2+ Mobilization IC50; for Ca^2+ Mobilization % Inh @10 μM: compound at 10 μM; for Ca^2+ Mobilization % Inh @10 μM / inhibition at 10 µM: multiple values = repeat tests; for inhibition at 10 µM: HEK293, compound at 10 μM, read-out: Ca^2+ Mobilization % Inh @10 μM. On the procedure: At a time of 24 h prior to running the assay, in cell culture media (DMEM containing high Glucose and L-glutamine, 10% FBS, 1% Pen/Streptomycin, 1% Sodium Pyruvate, 20 mM HEPES, Zeocin 200 mg/L), 100 μL of 1.3*10^6/ml HEK 293 GPR73 (prokineticin 1 receptor) expressing cells were plated in a 96 well poly-d-lysine coated plate (Costar), and incubated at 37 C and 5% CO2. On the day in which the assay was run, the media was removed and 200 μL of 5× Calcium Plus Dye (Molecular Devices) which was previously resuspended with 200 mL of assay buffer [HBSS w/Ca^2+ and Mg^2+ w/o phenol red, 20 mM HEPES, 0.1% BSA, 10 mL probenecid (710 mg probenecid in 5 mL of 1N NaOH, to which was then added 5 mL HBSS containing 20 mM HEPES)] was added to each well of the 96-well plate. The plate was incubated at 37 C and 5% CO2 for 30 min in dark. The plate was removed and allowed to reach RT for 15 min in the dark. The assay was then run on the FLIPR. […] Baseline is described as the amount of relative fluorescence read when buffer alone is added to cells. Baseline was subtracted from all wells. Percent of control was calculated as follows:
(Baseline subtracted well value is divided by baseline subtracted max value)*100.
Percent inhibition is 100 minus the percent of control value.
IC50 values were calculated using GraphPad Prism.
Table 2 includes data generated from the PK1 functional assay described in Example 2.

What is called IC50 is the concentration needed to halve the response being measured.

Values joined by “and” are separate entries in the source; they are usually repeats but may differ in a detail not shown here. Identical values can stand only once. Where only a bound is given, the exact number is not on record here.

T1 sequence (Q8TCW9 whole entry): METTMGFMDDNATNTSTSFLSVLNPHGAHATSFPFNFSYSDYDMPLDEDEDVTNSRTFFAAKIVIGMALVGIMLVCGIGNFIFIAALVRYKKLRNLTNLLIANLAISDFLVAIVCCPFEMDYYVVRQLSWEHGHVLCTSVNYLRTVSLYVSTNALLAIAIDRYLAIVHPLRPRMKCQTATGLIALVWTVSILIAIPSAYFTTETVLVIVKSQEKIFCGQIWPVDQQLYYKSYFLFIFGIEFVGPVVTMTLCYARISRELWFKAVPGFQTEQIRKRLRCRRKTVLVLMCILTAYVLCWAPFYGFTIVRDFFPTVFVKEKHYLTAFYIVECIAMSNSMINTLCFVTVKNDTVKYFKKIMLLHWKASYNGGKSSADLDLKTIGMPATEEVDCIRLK

In the case of `COc1ccc(Cn2c(NCCN(C(=N)N)c3ccc(C#N)cc3)nc(=O)n(Cc3ccc(F)cc3)c2=O)cc1` [Cpd 90, N-(4-Cyano-phenyl)-N-{2-[5-(4-fluoro-benzyl)-1-(4-methoxy-benzyl)-4,6-dioxo-1,4,5,6-tetrahydro-[1,3,5]triazin-2-ylamino]-ethyl}-guanidine], the IC50 is 31 nM and 43 nM. For the setting “10 µM”, the “Ca^2+ Mobilization % Inh @10 μM” value is 100% and 101%.

Regarding `COc1ccc(Cn2c(NCCNC(=N)Nc3ccc([N+](=O)[O-])cc3)nc(=O)n(Cc3ccc(F)cc3)c2=O)cc1` [Cpd 91], the inhibition at 10 µM was determined as 101% and the IC50 was 54 nM.

Take `COc1ccc(Cn2c(NCCNC(=N)Nc3ccc4c(c3)OCO4)nc(=O)n(Cc3ccc(F)cc3)c2=O)cc1` [Cpd 92]: the inhibition at 10 µM is 97% and the IC50 turned out to be 40 nM.

`COc1ccc(Cn2c(NCCNC(=N)NN)nc(=O)n(Cc3ccc(F)cc3)c2=O)cc1` [Cpd 93, N-{2-[5-(4-Fluoro-benzyl)-1-(4-methoxy-benzyl)-4,6-dioxo-1,4,5,6-tetrahydro-[1,3,5]triazin-2-ylamino]-ethyl}-AN-amino-guanidine]: the inhibition at 10 µM was found to be 92% and the IC50 was found to be 227 nM.

Take `COc1ccc(Cn2c(NCCNC(=N)N)nc(=O)n(Cc3cccc([N+](=O)[O-])c3)c2=O)cc1` [Cpd 94]: the inhibition at 10 µM turned out to be 60% and the 50% inhibitory concentration (IC50) stood at 4800 nM.

`COc1ccc(Cn2c(NCCNC(=N)N)nc(=O)n(Cc3ccc([N+](=O)[O-])cc3)c2=O)cc1` [Cpd 95, N-{2-[1-(4-Methoxy-benzyl)-5-(4-nitro-benzyl)-4,6-dioxo-1,4,5,6-tetrahydro-[1,3,5]triazin-2-ylamino]-ethyl}-guanidine]: the inhibition at 10 µM was 96% and the IC50 is 84 nM.

As for `COc1ccc(Cn2c(NCCNC(=N)N)nc(=O)n(Cc3cccc(N)c3)c2=O)cc1` [Cpd 96], the inhibition at 10 µM amounted to 43% and the IC50 was over 10000 nM.

In the case of `COc1ccc(Cn2c(NCCNC(=N)N)nc(=O)n(Cc3ccc(C#N)cc3)c2=O)cc1` [Cpd 97], the inhibition at 10 µM amounted to 86% and the IC50 worked out at 318 nM.

Consider `COc1ccc(Cn2c(NCCNC(=N)N)nc(=O)n(Cc3cccc(C#N)c3)c2=O)cc1` [Cpd 98], for which the inhibition at 10 µM was determined as 34% and the IC50 was over 10000 nM.

Consider `[H]/N=C(\N)NCCNc1nc(=O)n(Cc2ccc(C(=O)OC)cc2)c(=O)n1Cc1ccc(OC)cc1` [Cpd 99], for which the inhibition at 10 µM amounted to 73% and the IC50 is 794 nM.

With `COC(=O)c1cccc(Cn2c(=O)nc(NCCNC(=N)N)n(Cc3ccc(OC)cc3)c2=O)c1` [Cpd 100], the inhibition at 10 µM turned out to be 48% and the IC50 came to 8820 nM.

Take `COc1ccc(Cn2c(NCCNC(=N)N)nc(=O)n(Cc3ccc(C(=O)O)cc3)c2=O)cc1` [Cpd 101, 4-[4-(2-Guanidino-ethylamino)-3-(4-methoxy-benzyl)-2,6-dioxo-3,6-dihydro-2H-[1,3,5]triazin-1-ylmethyl]-benzoic acid]: the inhibition at 10 µM stood at 33% and the IC50 is over 10000 nM.

On to `COc1ccc(Cn2c(NCC(C)(C)NC(=N)N)nc(=O)n(Cc3ccc(Cl)c(Cl)c3)c2=O)cc1` [Cpd 102], for which the inhibition at 10 µM was found to be 68% and the IC50 turned out to be 3490 nM.

Turning to `COc1ccc(Cn2c(NCCNC(=N)Nc3ccc(Br)cc3)nc(=O)n(Cc3ccc(F)cc3)c2=O)cc1` [Cpd 103], the inhibition at 10 µM came to 99% and the 50% inhibitory concentration (IC50) was determined as 23 nM.

Turning to `COc1ccc(Cn2c(NCCN(C(=N)N)c3ccccn3)nc(=O)n(Cc3ccc(F)cc3)c2=O)cc1` [Cpd 104, N-{2-[5-(4-Fluoro-benzyl)-1-(4-methoxy-benzyl)-4,6-dioxo-1,4,5,6-tetrahydro-[1,3,5]triazin-2-ylamino]-ethyl}-N-pyridin-2-yl-guanidine], the half-inhibitory concentration (IC50) was 11 nM. Under “10 µM”, the “Ca^2+ Mobilization % Inh @10 μM” value was 99% and 102%.

In the case of `COc1ccc(Cn2c(NCCNC(=N)NCCc3ccccn3)nc(=O)n(Cc3ccc(F)cc3)c2=O)cc1` [Cpd 105], the IC50 is 89 nM and the “Ca^2+ Mobilization % Inh @10 μM” value was 100%.

On to `CCOC(=O)c1ccc(NC(=N)NCCNc2nc(=O)n(Cc3ccc(F)cc3)c(=O)n2Cc2ccc(OC)cc2)cc1` [Cpd 106], for which the inhibition at 10 µM came out at 89% and the half-maximal inhibitory concentration (IC50) amounted to 508 nM.

On to `COc1ccc(Cn2c(NCCNC(=N)Nc3ccc(F)cc3F)nc(=O)n(Cc3ccc(F)cc3)c2=O)cc1` [Cpd 107], for which the inhibition at 10 µM came to 101% and the IC50 came out at 12 nM.

For `CCCCCCCCCCNC(=N)NCCNc1nc(=O)n(Cc2ccc(F)cc2)c(=O)n1Cc1ccc(OC)cc1` [Cpd 108], the inhibition at 10 µM amounted to 89% and the IC50 was determined as 369 nM.

With `COc1ccc(Cn2c(NCCNC(=N)N)nc(=O)n(Cc3ccc(OC(C)(C)C)cc3)c2=O)cc1` [Cpd 109], the IC50 worked out at 129 nM and the “Ca^2+ Mobilization % Inh @10 μM” value was determined as 99%.

With `COc1ccc(Cn2c(NCCNC(=N)N)nc(=O)n(Cc3ccc(O)cc3)c2=O)cc1` [Cpd 110, N-{2-[5-(4-Hydroxy-benzyl)-1-(4-methoxy-benzyl)-4,6-dioxo-1,4,5,6-tetrahydro-[1,3,5]triazin-2-ylamino]-ethyl}-guanidine], the inhibition at 10 µM came out at 81% and the IC50 turned out to be 1160 nM.

Take `COc1ccc(Cn2c(NCCNC(=N)N)nc(=O)n(Cc3csc(Cl)n3)c2=O)cc1` [Cpd 111]: the inhibition at 10 µM was 100% and the IC50 was 154 nM.

As to `COc1ccc(Cn2c(NCCNC(=N)N)nc(=O)n(Cc3cc4ccccc4o3)c2=O)cc1` [Cpd 112], the inhibition at 10 µM stood at 101% and the IC50 is 26 nM.

`COc1ccc(Cn2c(NCCN(C)C(=N)N)nc(=O)n(Cc3ccc(Cl)c(Cl)c3)c2=O)cc1` [Cpd 113]: the inhibition at 10 µM came out at 101%; the IC50 was 11 nM and 24 nM and 46 nM and 76 nM. For the setting “10 µM”, the “Ca^2+ Mobilization % Inh @10 μM” value is 100% and 102%.

Regarding `COc1ccc(Cn2c(NCCNC(=N)NCC(F)(F)F)nc(=O)n(Cc3ccc(F)cc3)c2=O)cc1` [Cpd 114], the inhibition at 10 µM turned out to be 99% and the half-maximal inhibitory concentration (IC50) was 41 nM.

In the case of `COCCCNC(=N)NCCNc1nc(=O)n(Cc2ccc(F)cc2)c(=O)n1Cc1ccc(OC)cc1` [Cpd 115], the inhibition at 10 µM was 99% and the IC50 was determined as 47 nM.

As to `COc1ccc(Cn2c(NCCNC(=N)N3CCCCC3)nc(=O)n(Cc3ccc(F)cc3)c2=O)cc1` [Cpd 116], the inhibition at 10 µM was 99% and the IC50 stood at 57 nM.

As for `COc1ccc(Cn2c(NCCNC(=N)N(C)c3ccccc3)nc(=O)n(Cc3ccc(F)cc3)c2=O)cc1` [Cpd 117], the inhibition at 10 µM came to 79% and the concentration for half-maximal inhibition (IC50) was determined as 84 nM.

Regarding `COc1ccc(Cn2c(NCCN(C(=N)N)c3ccccc3F)nc(=O)n(Cc3ccc(F)cc3)c2=O)cc1` [Cpd 118, N-{2-[5-(4-Fluoro-benzyl)-1-(4-methoxy-benzyl)-4,6-dioxo-1,4,5,6-tetrahydro-[1,3,5]triazin-2-ylamino]-ethyl}-N-(2-fluoro-phenyl)-guanidine], the IC50 stood at 6 nM. Further, the “Ca^2+ Mobilization % Inh @10 μM” value (10 µM) is 98% and 102%.

For `COc1ccc(Cn2c(NCCNC(=N)Nc3ccc(F)cc3)nc(=O)n(Cc3ccc(F)cc3)c2=O)cc1` [Cpd 119, N-{2-[5-(4-Fluoro-benzyl)-1-(4-methoxy-benzyl)-4,6-dioxo-1,4,5,6-tetrahydro-[1,3,5]triazin-2-ylamino]-ethyl}-N′-(4-fluoro-phenyl)-guanidine], the inhibition at 10 µM worked out at 102%; the IC50 is 6 nM and 12 nM. The “Ca^2+ Mobilization % Inh @10 μM” value (10 µM) amounted to 99%.

For the compound `COc1ccc(Cn2c(NCCNC(=N)Nc3ccc(C)cc3)nc(=O)n(Cc3ccc(F)cc3)c2=O)cc1` [Cpd 120], the inhibition at 10 µM was 100%; the IC50 is 9 nM and 15 nM. Moreover, the “Ca^2+ Mobilization % Inh @10 μM” value (10 µM) was 102%.

Consider `COc1ccc(Cn2c(NCCNC(=N)NC(C)(C)C)nc(=O)n(Cc3ccc(F)cc3)c2=O)cc1` [Cpd 121], for which the inhibition at 10 µM was found to be 101%; the IC50 is 20 nM and 33 nM. For the same compound, the “Ca^2+ Mobilization % Inh @10 μM” value (10 µM) is 98%.

As to `N=C(N)NCCNc1nc(=O)n(Cc2ccc(Cl)cc2)c(=O)n1Cc1ccc(N)cc1` [Cpd 122, N-{2-[1-(4-Amino-benzyl)-5-(4-chloro-benzyl)-4,6-dioxo-1,4,5,6-tetrahydro-[1,3,5]triazin-2-ylamino]-ethyl}-guanidine], the inhibition at 10 µM was determined as 78% and the IC50 worked out at 1080 nM.

As for `COc1ccc(Cn2c(NCCNC(=N)N)nc(=O)n(CC(C)(C)C)c2=O)cc1` [Cpd 123], the inhibition at 10 µM amounted to 34% and the 50% inhibitory concentration (IC50) was over 10000 nM.

On to `COc1ccc(Cn2c(NCCNC(=N)N)nc(=O)n(CC3CCCC3)c2=O)cc1` [Cpd 124], for which the inhibition at 10 µM worked out at 74% and the IC50 was 1560 nM.

Values taken from patent publication US20080045535A1, “Prokineticin 2 receptor antagonists” (priority 2005, published 2008).
